Experimental data from ChEMBL document CHEMBL1159126, “Salicylanilide carbamates: antitubercular agents active against multidrug-resistant Mycobacterium tuberculosis strains” (Bioorg Med Chem, 2010).
Values after ≈ are worked out from the molar mass of the structure shown.

Columns and labels:
Experiment in all cases: microbe, parasite or virus in culture
[1] = system: Mycobacterium tuberculosis; settings: isolate 2092/05, 336 h
[2] = system: Mycobacterium tuberculosis; settings: isolate 9449/06, 336 h
[3] = system: Mycobacterium tuberculosis; settings: isolate 9449/06, 504 h
[4] = system: Mycobacterium tuberculosis; settings: isolate 7357/98, 504 h
[5] = system: Mycobacterium tuberculosis; settings: isolate Praha 128, 336 h
[6] = system: Mycobacterium tuberculosis; settings: isolate Praha 1, 504 h
[7] = system: Mycobacterium tuberculosis; settings: isolate 7357/98, 336 h
[8] = system: Mycobacterium tuberculosis; settings: isolate Praha 1, 336 h
[9] = system: Mycobacterium tuberculosis; settings: isolate Praha 128, 504 h
[10] = system: Mycobacterium tuberculosis; settings: isolate 2092/05, 504 h

| Structure (SMILES) | MIC [1] | MIC [2] | MIC [3] | MIC [4] | MIC [5] | MIC [6] | MIC [7] | MIC [8] | MIC [9] | MIC [10] |
| --- | --- | --- | --- | --- | --- | --- | --- | --- | --- | --- |
| CCCCCCNC(=O)Oc1ccc(Cl)cc1C(=O)Nc1ccc(Cl)c(Cl)c1 | 0.5 µM (≈ 0.222 µg/mL) | 0.5 µM (≈ 0.222 µg/mL) | 0.5 µM (≈ 0.222 µg/mL) | 1 µM (≈ 0.444 µg/mL) | 0.5 µM (≈ 0.222 µg/mL) | 1 µM (≈ 0.444 µg/mL) | 0.5 µM (≈ 0.222 µg/mL) | 0.5 µM (≈ 0.222 µg/mL) | 0.5 µM (≈ 0.222 µg/mL) | 0.5 µM (≈ 0.222 µg/mL) |
| CCNC(=O)Oc1ccc(Cl)cc1C(=O)Nc1ccc(Cl)c(Cl)c1 | 0.5 µM (≈ 0.194 µg/mL) | 0.5 µM (≈ 0.194 µg/mL) | 0.5 µM (≈ 0.194 µg/mL) | 1 µM (≈ 0.388 µg/mL) | 0.5 µM (≈ 0.194 µg/mL) | 1 µM (≈ 0.388 µg/mL) | 0.5 µM (≈ 0.194 µg/mL) | 0.5 µM (≈ 0.194 µg/mL) | 0.5 µM (≈ 0.194 µg/mL) | 0.5 µM (≈ 0.194 µg/mL) |
| CCCCNC(=O)Oc1ccc(Cl)cc1C(=O)Nc1ccc(Cl)c(Cl)c1 | 0.5 µM (≈ 0.208 µg/mL) | 1 µM (≈ 0.416 µg/mL) | 0.5 µM (≈ 0.208 µg/mL) | 1 µM (≈ 0.416 µg/mL) | 0.5 µM (≈ 0.208 µg/mL) | 1 µM (≈ 0.416 µg/mL) | 0.5 µM (≈ 0.208 µg/mL) | 0.5 µM (≈ 0.208 µg/mL) | 1 µM (≈ 0.416 µg/mL) | 1 µM (≈ 0.416 µg/mL) |
| CCCCCNC(=O)Oc1ccc(Cl)cc1C(=O)Nc1ccc(Cl)c(Cl)c1 | 0.5 µM (≈ 0.215 µg/mL) | 0.5 µM (≈ 0.215 µg/mL) | 0.5 µM (≈ 0.215 µg/mL) | 0.5 µM (≈ 0.215 µg/mL) | 0.5 µM (≈ 0.215 µg/mL) | 1 µM (≈ 0.43 µg/mL) | 0.5 µM (≈ 0.215 µg/mL) | 0.5 µM (≈ 0.215 µg/mL) | 0.5 µM (≈ 0.215 µg/mL) | 0.5 µM (≈ 0.215 µg/mL) |
| CCCCCNC(=O)Oc1ccc(Cl)cc1C(=O)Nc1ccc(Cl)cc1 | 1 µM (≈ 0.395 µg/mL) | 1 µM (≈ 0.395 µg/mL) | 1 µM (≈ 0.395 µg/mL) | 2 µM (≈ 0.791 µg/mL) | 1 µM (≈ 0.395 µg/mL) | 2 µM (≈ 0.791 µg/mL) | 1 µM (≈ 0.395 µg/mL) | 1 µM (≈ 0.395 µg/mL) | 1 µM (≈ 0.395 µg/mL) | 1 µM (≈ 0.395 µg/mL) |
| CCCCCCCNC(=O)Oc1ccc(Cl)cc1C(=O)Nc1ccc(Cl)c(Cl)c1 | 0.5 µM (≈ 0.229 µg/mL) | 0.5 µM (≈ 0.229 µg/mL) | 0.5 µM (≈ 0.229 µg/mL) | 0.5 µM (≈ 0.229 µg/mL) | 0.5 µM (≈ 0.229 µg/mL) | 1 µM (≈ 0.458 µg/mL) | 0.5 µM (≈ 0.229 µg/mL) | 0.5 µM (≈ 0.229 µg/mL) | 1 µM (≈ 0.458 µg/mL) | 1 µM (≈ 0.458 µg/mL) |
| CCCCCCCCNC(=O)Oc1ccc(Cl)cc1C(=O)Nc1ccc(Cl)c(Cl)c1 | 0.5 µM (≈ 0.236 µg/mL) | 1 µM (≈ 0.472 µg/mL) | 0.5 µM (≈ 0.236 µg/mL) | 1 µM (≈ 0.472 µg/mL) | 0.5 µM (≈ 0.236 µg/mL) | 2 µM (≈ 0.944 µg/mL) | 1 µM (≈ 0.472 µg/mL) | 1 µM (≈ 0.472 µg/mL) | 1 µM (≈ 0.472 µg/mL) | 1 µM (≈ 0.472 µg/mL) |
| CCCCCCNC(=O)Oc1ccc(Cl)cc1C(=O)Nc1cccc(Cl)c1 | 1 µM (≈ 0.409 µg/mL) | 1 µM (≈ 0.409 µg/mL) | 1 µM (≈ 0.409 µg/mL) | 1 µM (≈ 0.409 µg/mL) | 1 µM (≈ 0.409 µg/mL) | 2 µM (≈ 0.819 µg/mL) | 1 µM (≈ 0.409 µg/mL) | 1 µM (≈ 0.409 µg/mL) | 2 µM (≈ 0.819 µg/mL) | 2 µM (≈ 0.819 µg/mL) |
| NNC(=O)c1ccncc1 [ISONIAZID] | 16 µM (≈ 2.19 µg/mL) | 16 µM (≈ 2.19 µg/mL) | 16 µM (≈ 2.19 µg/mL) | 16 µM (≈ 2.19 µg/mL) | 16 µM (≈ 2.19 µg/mL) | 16 µM (≈ 2.19 µg/mL) | 16 µM (≈ 2.19 µg/mL) | 16 µM (≈ 2.19 µg/mL) | 16 µM (≈ 2.19 µg/mL) | 16 µM (≈ 2.19 µg/mL) |
